Experimental findings from patent US20190256499A1, “SUBSTITUTED QUINOXALINE DERIVATIVES AS INHIBITORS OF PFKFB” (priority 2016, published 2019) are described below.

The term IC50 denotes the concentration needed to halve the response being measured.

Each structure is given as a SMILES string.

This test deals with T1, Human recombinant His-tagged PFKFB3 (Homo sapiens, UniProt Q16875).
T1 construct: His; made in house
T1 sequence (Q16875 whole entry): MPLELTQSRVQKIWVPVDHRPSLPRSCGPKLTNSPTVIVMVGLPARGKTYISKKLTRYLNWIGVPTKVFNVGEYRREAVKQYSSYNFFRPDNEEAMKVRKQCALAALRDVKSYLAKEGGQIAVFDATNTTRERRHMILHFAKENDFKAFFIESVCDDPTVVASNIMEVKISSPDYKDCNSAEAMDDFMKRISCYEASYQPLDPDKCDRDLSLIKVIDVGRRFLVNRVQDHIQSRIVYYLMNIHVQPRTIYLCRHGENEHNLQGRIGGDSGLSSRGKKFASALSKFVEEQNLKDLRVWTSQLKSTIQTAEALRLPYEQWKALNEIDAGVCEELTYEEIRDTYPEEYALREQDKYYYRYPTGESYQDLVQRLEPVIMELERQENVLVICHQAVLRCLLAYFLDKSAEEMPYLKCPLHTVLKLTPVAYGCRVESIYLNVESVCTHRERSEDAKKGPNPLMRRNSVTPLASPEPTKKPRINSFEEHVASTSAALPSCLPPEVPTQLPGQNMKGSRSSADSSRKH
Kind of test: PFKFB3 IC50 determination assay (modified ADP-Glo in vitro kinase assay). To be noted: human recombinant PFKFB3 25 nM, ATP 20 μM, fructose-6-phosphate 2 μM, 2 h, rt; read-out: PFKFB IC50. It is filed as biochemical. Here is the method: In vitro kinase assay used to determine IC50 values for tested inhibitors is based on a modified ADP-Glo™ system (Promega) and consists of two parts:
1. Kinase reaction—performed in optimized conditions. At this step PFKFB3 phosphorylates its substrate fructose-6-phosphate using ATP as a source of phosphate to produce fructose-2,6-bisphosphate and ADP. Reaction is performed at Km values for ATP and substrate using optimized buffer composition and time of the reaction. Human recombinant His-tagged PFKFB3 (PFKFB3 BATCH II SEC) with confirmed activity is produced and purified in-house. 2. Detection of ADP as a product of the reaction using ADP-Glo™ system. This part is conducted by using the commercially available kit ADP-Glo™ Kinase Assay (Promega, cat. No# V9103) according to manufacturer's instruction, modified by 5× dilutions of assay reagents (both ADP-Glo™ Reagent and Kinase Detection Solution). Reproducibility and reliability of this modification is confirmed in an optimization process.
Test compounds are dissolved in DMSO and then transferred to the V-bottom 96-well plate. For IC50 determination ten 10× serial dilutions starting from 100 μM are prepared.
Two mixes are prepared on ice: Mix 1—containing appropriate kinase amount in 2× reaction buffer (100 mM TRIS pH 8.0) and Mix 2—containing 2.31× concentrated substrate (Fructose-6-phosphate) and ATP in MilliQ water. 15 μL per well of Mix 1 is transferred to assay wells of 96-well white plate. Next, 2 μl of 15× concentrated test compound in DMSO is added to Mix 1 for 20 min pre-incubation, followed by addition of Mix 2 (13 μl/well). Total reaction volume is 30 μL per well. Samples are tested in duplicates. Final concentration of DMSO in the reaction is 6.7%. Conditions needed for performing PFKFB3 (PFKFB3 BATCH II SEC) in vitro kinase assay are given below:
This protocol is based on Technical Bulletin, ADP-Glo™ Kinase Assay (Promega) and is adapted to 96-well plate containing 30 μL reaction mixture:
30 μL of 5× diluted ADP-Glo™ Reagent is added to each well of 96-well plate containing 30 μL of reaction mixture. The plate is incubated for 90 minutes on a shaker at rt. 60 μL of 5× diluted Kinase Detection Solution is added to each well of 96-well plate containing 60 μL of the solution (ratio of kinase reaction volume to ADP-Glo™ Reagent volume to Kinase Detection Solution volume is maintained at 1:1:2). Plate is incubated for 40 minutes on a shaker at rt, protected from light. Luminescence is measured in the plate reader Synergy 2 (BioTek).
Luminescent readouts for compounds tested in 10 concentrations (routinely from 100 μM to […], […] serial dilutions) in duplicates, as well as for positive control, are first normalized to no-substrate negative control by its subtraction. In the next step, % of normalized positive control is calculated for each data point and plotted against test compound concentration:
% of control—percent of positive control normalized to no-substrate negative control Lumcpd—luminescence of test compound Lumneg—luminescence of no-substrate negative control Lumpos—luminescence of positive control
IC50 parameter is determined by the GraphPad Prism 5.0 software [log(inhibitor) vs. response—Variable slope (four parameters)].
Background: In ADP-Glo the light output rises with the ADP produced.
In the case of `Cn1ccc2ccc(-c3cc(NC(c4cccnc4)c4ccc(=O)[nH]n4)cc4nccnc34)cc21` (single isomer, unassigned) [Example 2], the IC50 was found to be 28 nM.
As for `COc1ccc([C@@H](Nc2cc(-c3ccc4ccn(C)c4c3)c3nccnc3c2)c2cccnc2)nn1` (single isomer, unassigned) [Example 5], the figure is 8 nM; as for `Cn1cc([C@H](Nc2cc(-c3ccc4ccn(C)c4c3)c3nccnc3c2)c2cnnn2C)cn1` (single isomer, unassigned) [Example 8], 5.2 nM.
As for `Cn1cc([C@H](Nc2cc(-c3ccc4ccn(C)c4c3)c3nccnc3c2)c2cncn2C)cn1` (single isomer, unassigned) [Example 11], the figure is 14 nM.
As for `COc1ccc([C@@H](Nc2cc(-c3ccc4ccn(C)c4c3)c3nccnc3c2)c2cccnc2)cn1` [Comparative Example 4, [(S)-(6-methoxy-pyridin-3-yl)-pyridin-3-yl-methyl]-[8-(1-methyl-1H-indol-6-yl)-quinoxalin-6-yl]-amine, reference compound], the figure is 9.9 nM.
